The values below come from paper doi:10.1101/2025.01.07.631748, “Strategic Modulation of Polarity and Viscosity Sensitivity of Bimane Molecular Rotor-Based Fluorophores for Imaging α-Synuclein” (bioRxiv, 2025).

For test [1], the target named is T1, α-synuclein (αS) fibrils (Homo sapiens, UniProt P37840).
T1 construct: gene SNCA
Description: fluorescence competition binding with 3c and 4a; fluorescence turn-on.

The target of test [2] is T1, α-synuclein (αS) fibrils. Briefly: fluorescence turn-on binding titration with αS fibrils.

As to `Cc1ccc2c(c1)sc(-c1ccc(N(C)C)cc1)[n+]2C` [ThT, Thioflavin-T], the “fluorescence competition binding with 3c and 4a; fluorescence turn-on” value in test [1] was “both 3c and 4a competed with the promiscuous binder ThT, but that some ThT emission remained at saturating concentrations”.

Turning to `Cc1c(C)n2c(/C=C/c3ccc(N4CCOCC4)cc3)c(C)c(=O)n2c1=O` [3e, RBF 3e], in test [2], the Kd is 3d and 3e, with cyclic amines, showed reduced affinity.

`Cc1c(C)n2c(/C=C/c3ccc(N4CCC4)cc3)c(C)c(=O)n2c1=O` [3d, RBF 3d]: the Kd in test [2] is 3d and 3e, with cyclic amines, showed reduced affinity.
